Experimental data: ChEMBL document CHEMBL1139724, “Synthesis and free radical scavenging activity of a novel metabolite from the fungus Colletotrichum gloeosporioides” (Bioorg Med Chem Lett, 2006)

Test: DPPH radical scavenging activity
Assay type: functional

| EC50 | SMILES |
| --- | --- |
| 0.11 mol/mol | O=C(O)/C=C/c1ccc(O)c(O)c1 [CAFFEIC ACID] |
| 0.14 mol/mol | Oc1ccc([C@H]2OC[C@H](O)[C@@H]2O)cc1O |
| 0.14 mol/mol | O=C(O)c1ccc(O)c(O)c1 [PROTOCATECHUIC ACID] |
| 0.23 mol/mol | Cc1cc(C(C)(C)C)c(O)c(C(C)(C)C)c1 [BUTYLATED HYDROXYTOLUENE] |
